The target of one experiment is T1, S1P3 (Homo sapiens, UniProt Q99500).
T1 construct: expressed in transfected cells; host or cells: EDG3-Ga15-bla HEK293T cells
The experiment can be described thus: Receptor [35S] GTPγS Binding Assay, membranes from EDG3-Ga15-bla HEK293T cells. The format is biochemical. As to conditions: * detection limit 31,000 nM or 62,000 nM. How it is done: (§1) Receptor [35S] GTPγS Binding Assays
(§2) Membranes prepared from S1P1/CHO cells or EDG3-Ga15-bla HEK293T cells were added to the compound plate (40 μl/well, final protein 3 μg/well) with MULTIDROP®. [^35S]GTP (1250 Ci/mmol, Perkin Elmer) was diluted in assay buffer: 20 mM HEPES, pH7.5, 10 mM MgCl2, 150 mM NaCl, 1 mM EGTA, 1 mM DTT, 10 μM GDP, 0.1% fatty acid free BSA, and 10 μg/ml Saponin to 0.4 nM. 40 μl of the [^35S] GTP solution was added to the compound plate with a final concentration of 0.2 nM. […] At the end of incubation, all the mixtures in the compound plate were transferred to a 384 well FB filter plates via GPCR robot system. […] 30 μl of MicroScint 20 scintillation fluid was added to each well for counting at Packard TOPCOUNT®.
Background: Binding of GTPγS marks nucleotide exchange on a G protein.

The target in experiment [1] is T2, S1P1 (Homo sapiens, UniProt P21453). The experiment can be described thus: S1P1 Binding Assay (33P-S1P radioligand competition, membranes). On the set-up: expressed in transfected cells; host or cells: CHO cells. The note with it: membranes from CHO cells expressing human S1P1; 0.03 nM 33P-S1P; rounded to two digits. On the procedure:
Membranes were prepared from CHO cells expressing human S1P1. Cells were dissociated in buffer containing 20 mM HEPES, pH 7.5, 50 mM NaCl, 2 mM EDTA and Protease Inhibitor cocktail (Roche), and disrupted on ice using the Polytron homogenizer. The homogenate was centrifuged at 20,000 rpm (48,000 G) and the supernatant was discarded. The membrane pellets were resuspended in buffer containing 50 mM HEPES, pH 7.5, 100 mM NaCl, 1 mM MgCl2, 2 mM EDTA and stored in aliquots at −80° C. after protein concentration determination.
Binding was performed for 45 minutes at room temperature, terminated by collecting the membranes onto GF/B filter plates, and radioactivity was measured by TOPCOUNT®. The competition data of the test compounds over a range of concentrations was plotted as percentage inhibition of radioligand specific binding.
The results in Table A were rounded to two digits.
On the technique in general: Displacement assays read how much labelled ligand stays bound in the presence of the test substance.

The target in experiment [2] is T2, S1P1. The experiment can be described thus: Receptor [35S] GTPγS Binding Assay, membranes from S1P1/CHO cells. The format is biochemical. On the set-up: expressed in transfected cells; host or cells: S1P1/CHO cells. As to conditions: for S1P3/S1P1 GTPγS (ratio of S1P3 GTPγS EC50 to S1P1 GTPγS EC50): selectivity ratio calculated from Table B, * may be greater than reported value due to S1P3 assay limits. How it is done: as §1, §2

Another experiment deals with circulating lymphocytes. The experiment can be described thus: Blood Lymphocyte Reduction Assay (BLR) in Rodents. It counts as in vivo. As to conditions: Lewis rats, oral, vs vehicle (PEG300). On the procedure:
Blood Lymphocyte Reduction Assay (BLR) in Rodents
Lewis rats were dosed orally with test article (as a solution or suspension in the vehicle) or vehicle alone (polyethylene glycol 300, “PEG300”). Blood was drawn at 4 hr by retro-orbital bleeding. Blood lymphocyte counts were determined on an ADVIA® 120 Hematology Analyzer (Siemens Healthcare Diagnostics). The results were measured as a reduction in the percentage of circulating lymphocytes as compared to the vehicle treated group at the 4 hr measurement.

[3] abbreviates: membranes from S1P1/CHO cells, read-out: S1P1 GTPγS EC50.

Molecules are shown by their SMILES. Where two headings read alike, the source gives them in different places. Bounds are passed on as bounds.

The EC50 is the concentration needed to bring the measured effect to its halfway point. Usually IC50 stands for the concentration at which inhibition is half-maximal.

T2 sequence (P21453 whole entry): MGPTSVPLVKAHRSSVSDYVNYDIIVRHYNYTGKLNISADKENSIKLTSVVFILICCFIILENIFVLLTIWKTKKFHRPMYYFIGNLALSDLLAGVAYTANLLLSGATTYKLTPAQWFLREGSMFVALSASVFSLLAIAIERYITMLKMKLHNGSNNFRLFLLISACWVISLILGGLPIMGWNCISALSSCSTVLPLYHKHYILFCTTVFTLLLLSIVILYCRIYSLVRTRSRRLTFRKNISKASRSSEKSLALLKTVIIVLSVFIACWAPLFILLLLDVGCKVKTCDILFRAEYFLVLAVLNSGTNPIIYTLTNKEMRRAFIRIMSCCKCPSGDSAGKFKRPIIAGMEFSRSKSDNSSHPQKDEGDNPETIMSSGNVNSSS
T1 sequence (Q99500 whole entry): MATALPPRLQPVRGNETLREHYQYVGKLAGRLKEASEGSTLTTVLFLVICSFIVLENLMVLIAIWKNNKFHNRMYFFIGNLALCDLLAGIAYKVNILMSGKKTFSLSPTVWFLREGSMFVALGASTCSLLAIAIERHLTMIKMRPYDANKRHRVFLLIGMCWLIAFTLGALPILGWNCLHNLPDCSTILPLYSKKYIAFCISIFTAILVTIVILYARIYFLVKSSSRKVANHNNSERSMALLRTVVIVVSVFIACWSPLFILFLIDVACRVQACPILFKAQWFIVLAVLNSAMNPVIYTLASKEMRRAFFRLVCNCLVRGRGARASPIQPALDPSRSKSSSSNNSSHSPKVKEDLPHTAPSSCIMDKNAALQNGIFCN

On to `CCCc1c(-c2nc(-c3ccc(CCN4CCC[C@H](C(=O)O)C4)cc3)no2)noc1-c1ccccc1` [Comparative Compound 119, (S)-1-(4-(5-(5-Phenyl-4-propylisoxazol-3-yl)-1,2,4-oxadiazol-3-yl)phenethyl)piperidine-3-carboxylic acid, reference compound], for which the EC50 at S1P3 was more than 62000 nM; on S1P1 [2] (read-out: S1P1 GTPγS EC50 value), 31000 nM. Besides, the IC50 at S1P1 [1] turned out to be 420 nM. Moreover, the “S1P3/S1P1 GTPγS (ratio of S1P3 GTPγS EC50 to S1P1 GTPγS EC50)” value at S1P1 [2] is 2.3; on S1P1 [2] (listed as Comp. 119), 2.3*.

`CCCc1c(-c2nc(-c3ccc(C(O)CN4CC(C(=O)O)C4)cc3)no2)noc1-c1ccccc1` (stereo not drawn) [Example 1, 1-(2-Hydroxy-2-(4-(5-(5-phenyl-4-propylisoxazol-3-yl)-1,2,4-oxadiazol-3-yl)phenyl)ethyl)azetidine-3-carboxylic acid] showed an IC50 at S1P1 [1] of 0.45 nM. In other words, the sub-nanomolar range. The same measure, in the same setting: the same measure for `CCCc1c(-c2nc(-c3ccc(C(O)CN4CCCCC4C(=O)O)cc3)no2)noc1-c1ccccc1` (stereo not drawn) [Example 2, 1-(2-Hydroxy-2-(4-(5-(5-phenyl-4-propylisoxazol-3-yl)-1,2,4-oxadiazol-3-yl)phenyl)ethyl)piperidine-2-carboxylic acid]: 2.2 nM. For `CCCc1c(-c2nc(-c3ccc(C(O)CN4CCC[C@H](C(=O)O)C4)cc3)no2)noc1-c1ccccc1` (stereo partly drawn) [Example 4, (3S)-1-(2-Hydroxy-2-(4-(5-(5-phenyl-4-propylisoxazol-3-yl)-1,2,4-oxadiazol-3-yl)phenyl)ethyl)piperidine-3-carboxylic acid], the “% Reduction in Lymphocytes at 4 hr.” value in the experiment on circulating lymphocytes (dose 3 mg/kg) came out at 71%. On S1P1 [1], `CCCc1c(-c2nc(-c3ccc(C(O)CN4CC[C@@H]4C(=O)O)cc3)no2)noc1-c1ccccc1` (stereo partly drawn) [Example 7, (2R)-1-(2-Hydroxy-2-(4-(5-(5-phenyl-4-propylisoxazol-3-yl)-1,2,4-oxadiazol-3-yl)phenyl)ethyl)azetidine-2-carboxylic acid] returned an IC50 of 12 nM. Same read-out and setting: for `CCCc1c(-c2nc(-c3ccc(C(O)CN4CCOC(C(=O)O)C4)cc3)no2)noc1-c1ccccc1` (stereo not drawn) [Example 11, 4-(2-Hydroxy-2-(4-(5-(5-phenyl-4-propylisoxazol-3-yl)-1,2,4-oxadiazol-3-yl)phenyl)ethyl)morpholine-2-carboxylic acid] the value was 4.8 nM. In the case of `O=C(O)[C@H]1CCCN(C[C@@H](O)c2ccc(-c3noc(-c4onc(-c5ccccc5)c4C(F)(F)F)n3)cc2)C1` [Example 14, (S)-1-((S)-2-Hydroxy-2-(4-(5-(3-phenyl-4-(trifluoromethyl)isoxazol-5-yl)-1,2,4-oxadiazol-3-yl)phenyl)ethyl)piperidine-3-carboxylic acid], in the experiment with circulating lymphocytes (dose 3 mg/kg), the “% Reduction in Lymphocytes at 4 hr.” value amounted to 83%.

As to `CC(O)(CN1CCC[C@H](C(=O)O)C1)c1ccc(-c2noc(-c3onc(-c4ccccc4)c3C(F)(F)F)n2)cc1` (stereo partly drawn) [Example 17, (3S)-1-(2-Hydroxy-2-(4-(5-(3-phenyl-4-(trifluoromethyl)isoxazol-5-yl)-1,2,4-oxadiazol-3-yl)phenyl)propyl)piperidine-3-carboxylic acid], the EC50 was 1200 nM on S1P3 and 320 nM at S1P1 [2] (setting [3]). Besides, the IC50 at S1P1 [1] came to 28 nM. At S1P1 [2], the “S1P3/S1P1 GTPγS (ratio of S1P3 GTPγS EC50 to S1P1 GTPγS EC50)” value is recorded as 3.8. `O=C(O)C[C@H]1CCCN(C[C@@H](O)c2ccc(-c3noc(-c4onc(-c5ccccc5)c4C(F)(F)F)n3)cc2)C1` [Example 18, 2-((3R)-1-(2-Hydroxy-2-(4-(5-(3-phenyl-4-(trifluoromethyl)isoxazol-5-yl)-1,2,4-oxadiazol-3-yl)phenyl)ethyl)piperidin-3-yl)acetic acid]: the “% Reduction in Lymphocytes at 4 hr.” value with circulating lymphocytes (dose 1 mg/kg) is on record as 82%.

For the molecule `CCCc1c(-c2nc(-c3ccc(C(O)CN4CCCC(C(=O)N(CC)CC)C4)cc3)no2)noc1-c1ccccc1` (stereo not drawn) [Example 24, N,N-Diethyl-1-(2-hydroxy-2-(4-(5-(5-phenyl-4-propylisoxazol-3-yl)-1,2,4-oxadiazol-3-yl)phenyl)ethyl)piperidine-3-carboxamide], the values for the EC50 at S1P3 and at S1P1 [2] (setting [3]) were 3500 nM and 410 nM, respectively. Besides, at S1P1 [1], the IC50 worked out at 43 nM. On S1P1 [2], the “S1P3/S1P1 GTPγS (ratio of S1P3 GTPγS EC50 to S1P1 GTPγS EC50)” value is reported as 8.6. Consider `O=C(O)[C@H]1CCCN(CC(O)c2ccc(-c3noc(-c4onc(-c5ccccc5)c4C(F)(F)F)n3)c(C(F)(F)F)c2)C1` (stereo partly drawn) [Example 26, (3S)-1-(2-Hydroxy-2-(4-(5-(3-phenyl-4-(trifluoromethyl)isoxazol-5-yl)-1,2,4-oxadiazol-3-yl)-3-(trifluoromethyl)phenyl)ethyl)piperidine-3-carboxylic acid], for which the IC50 on S1P1 [1] turned out to be 14 nM. The molecule `O=C(O)CC1CN(CC(O)c2ccc(-c3noc(-c4onc(-c5ccccc5)c4C(F)(F)F)n3)cc2)C1` (stereo not drawn) [Example 27, 2-(1-(2-Hydroxy-2-(4-(5-(3-phenyl-4-(trifluoromethyl)isoxazol-5-yl)-1,2,4-oxadiazol-3-yl)phenyl)ethyl)azetidin-3-yl)acetic acid] displayed an IC50 on S1P1 [1] of 14 nM. Molecule `O=C(O)C1CN(CC(O)c2ccc(-c3noc(-c4onc(-c5ccccc5)c4C(F)(F)F)n3)cc2)CCO1` (stereo not drawn) [Example 28, 4-(2-Hydroxy-2-(4-(5-(3-phenyl-4-(trifluoromethyl)isoxazol-5-yl)-1,2,4-oxadiazol-3-yl)phenyl)ethyl)morpholine-2-carboxylic acid] yielded an IC50 at S1P1 [1] of 31 nM. For `O=C(O)CCC1CCCN(CC(O)c2ccc(-c3noc(-c4onc(-c5ccccc5)c4C(F)(F)F)n3)cc2)C1` (stereo not drawn) [Example 40, 3-(1-(2-Hydroxy-2-(4-(5-(3-phenyl-4-(trifluoromethyl)isoxazol-5-yl)-1,2,4-oxadiazol-3-yl)phenyl)ethyl)piperidin-3-yl)propanoic acid], the “% Reduction in Lymphocytes at 4 hr.” value in the experiment on circulating lymphocytes (dose 5.5 mg/kg) was determined as 80%. In the case of `O=C(O)[C@H]1CCCN(C[C@@H](O)c2ccc(-c3noc(-c4cnn(C5CCCCC5)c4C(F)(F)F)n3)cc2)C1` [Example 106, (S)-1-((S)-2-(4-(5-(1-cyclohcxyl-5-(trifluoromethyl)-1H-pyrazol-4-yl)-1,2,4-oxadiazol-3-yl)phenyl)-2-hydroxyethyl) piperidine-3-carboxylic acid], the EC50 on S1P3 worked out at 2250 nM; at S1P1 [2] (setting [3]), 1 nM. In addition, on S1P1 [2], the “S1P3/S1P1 GTPγS (ratio of S1P3 GTPγS EC50 to S1P1 GTPγS EC50)” value is on record as 2250. Turning to `O=C(O)C[C@H]1CCCN(C[C@@H](O)c2ccc(-c3noc(-c4ncn(-c5ccc(Cl)cc5)c4C(F)(F)F)n3)cc2)C1` [Example 117, 2-((R)-1-((S)-2-(4-(5-(1-(4-Chlorophenyl)-5-(trifluoromethyl)-1H-imidazol-4-yl)-1,2,4-oxadiazol-3-yl)phenyl)-2-hydroxyethyl)piperidin-3-yl)acetic acid], the EC50 is more than 62000 nM at S1P3 and 26 nM on S1P1 [2] (setting [3]). Also, the “S1P3/S1P1 GTPγS (ratio of S1P3 GTPγS EC50 to S1P1 GTPγS EC50)” value at S1P1 [2] was ≥ 2400*.

The record behind these values is patent publication US8399451B2, “Heterocyclic compounds” (Bristol-Myers Squibb Company, priority 2009, dated 2013).
